Assay results taken from US7259140B2, “Heparin-binding peptides and uses thereof” (Thomas Jefferson University, priority 2003, dated 2007).
Ends that are not written are not given here.

Assays:
[1] = system: Lovenox ® Activity in Blood from Patients Treated with Lovenox ®; experiment: Neutralizing Lovenox activity in blood from patients treated with Lovenox (anti-Factor Xa assay); format: biochemical, human; details: Peptide 12 μg/ml
Procedure: Blood was obtained from volunteers who were being treated with Lovenox® for their medical conditions after obtaining signatures on informed consent forms as approved by the Institutional Review Board. The assays to test neutralization of Lovendx® were performed as described for Table 2. A dose response from 1-60 μg/ml was evaluated as in Table 2.
The dose response pattern for the effective peptides was similar to the dose response in control plasma to which Lovenox® had been added. Each data point represents the mean and standard deviation of triplicate analyses on the same sample of blood from each patient.

[2] = Affinity coelectrophoresis (ACE) of peptide binding to radiolabeled low Mr heparin; design: species or system pig; details: for Kd: pH 7.0, mean and standard deviation of four assays, read-out: Kd (nM), affinity for low molecular weight heparin
Source text: Preparation of Radiolabeled Heparin. Whole heparin from pig intestinal mucosa (Sigma) was tyramine end-labeled and radiolabeled with Na^125I (Amersham, Pharmacia Biotech, Inc., Piscataway, N.J.) to an average specific activity≅1.0×10^7 CPM/μg as described (San Antonio, J. D., et al., Biochemistry, 32:4746-4755, 1993). Radiolabeled heparin was fractionated on Sephadex G-100 (Bio-Rad Laboratories, Hercules, Calif.) and the final≅12% of material to elute was retained as the low Mr material of ≦6,000 (Jordan, R., D. Beeler, and R. Rosenberg, J. Biol. Chem., 254:2902-2913, 1979; Laurent, T. C., et al., Biochem. J., 175:691-701, 1978).
Analysis of Peptide-Heparin Interactions by Affinity Coelectrophoresis (ACE). ACE was used to study interactions between peptides and low molecular weight (low Mr) heparin (WO00/45831). In ACE, trace concentrations of radiolabeled heparin are electrophoresed through agarose lanes containing peptides at various concentrations. These analyses are used to determine the dissociation constants (Kd's). The electrophoretic patterns of radiolabeled heparin are then visualized using a phosphorimager, and the dissociation constant (Kd) corresponds to the protein concentration at which the heparin is half shifted from being fully mobile at very low protein concentrations to maximally retarded at saturating protein concentrations. The lower the Kd value, the higher the affinity.
Binding of radiolabeled heparin to peptides was studied by ACE as detailed elsewhere (San Antonio, J. D., et al., Biochemistry, 32:4746-4755, 1993). […] Briefly, peptides were dissolved in 1×ACE running buffer, 50 mM sodium 3-(N-morpholino)-2-hydroxypropanesulfonate (MOPSO, Sigma)/125 mM sodium acetate, pH 7.0, and serially diluted in running buffer at 2× concentrations. Peptides were then mixed 1:1 with 2% agarose/1% CHAPS, 3-[(3-cholamidopropyl)dimethylammonio]-1-propanesulfonate, (Boehringer Mannheim, Indianapolis, Ind.), and loaded into wells of a 1% agarose gel. Radiolabeled heparin was then loaded in a slot on the anode side of the gel, and electrophoresed through the peptide-containing wells, towards the cathode. Gels were dried and PG mobility was measured with a Phosphorimager (Molecular Dynamics, Sunnyvale, Calif.) by scanning each protein lane and determining the relative radioactivity content per 88-μm pixel through the length of the lane. Retardation coefficient (R) measurements, binding isotherm curve fittings, and apparent Kd value determinations were calculated as detailed previously (Lee, M. K., and A. D. Lander, Proc. Natl. Acad. Sci. USA, 88:2768-2772, 1991; San Antonio, J. D., et al, Biochemistry, 32:4746-4755, 1993).
Retardation coefficients (R) for the migration of low Mr 1^25I-tyramine-heparin through peptides were determined from ACE gel electrophoretograms, and are plotted against peptide concentration. Smooth curves represent non-linear least-squares fits to the equation R=R∞/{1+(Kd/[peptide])^n}.

[3] = system: anti-Factor Xa Activity of the Low Molecular Weight Heparin Lovenox ®; experiment: Anti-Factor Xa assay (Stachrom Heparin kit): neutralization of Lovenox in citrate or plasma in vitro; format: biochemical, human; details: for Lovenox ® Neutralized: Lovenox 0.7 U/ml; for anti-LMWH effect in citrate compared with plasma: Table 2A
Procedure: The ability of peptides such as (ARKKAAKA)3VLVLVLVL (SEQ ID NO:5) to neutralize the anti-Factor Xa activity of UFH and LMWH in vitro was tested using the Stachrom Heparin kit (Diagnostica Stago), a standard hematology laboratory assay used to measure the anti-Factor Xa activity of heparin. The assay was performed using the low molecular weight heparin enoxaparin sodium (Lovenox®, Aventis Pharmaceuticals, Inc.), unfractionated heparin (UFH), or the non-heparin glycosaminoglycan danaparoid sodium (Orgaran®, Organon Inc., West Orange, N.J.) in 0.32% citrate or in plasma anticoagulated with 0.32% citrate. Enoxaparin is commonly used clinically as a low molecular weight heparin (LMWH). Danaparoid is commonly used clinically as a non-heparin glycosaminoglycan anticoagulant. Currently, the only FDA approved drug to target UFH is protamine, which is not effective in vivo against LMWH or a non-heparin glycosaminoglycan such as danaparoid. Buffer and ATIII are added to form the heparin/ATIII complex, peptide is added, then Factor Xa, reporter dye substrate for Factor Xa activity, and stop solution, and the dye concentration is read at 405 nm. The absorbance of the dye increases with increasing Factor Xa activity, and thus is inversely proportional to the heparin (anti-Factor Xa activity) concentration. Peptides were tested in plasma obtained from three volunteers (A, B, and C). Platelet function inhibitors PG12 and theophylline were added to the blood immediately upon collection.
Results. […] (ARKKAAKA)3VLVLVLVL (SEQ ID NO:5) and VLVL(ARKKAAKA)3ARKKCAKA (SEQ ID NO:38) were able to neutralize about 0.4 U/ml anti-Factor Xa activity of LMWH at a concentration of 12 μg/ml, which would be an effective dose for patients. (AKKARA)6 (SEQ ID […]), (ARKKAAKA)4 (SEQ ID NO:31) and (ARKKAAKA)3ARKKCAKA […] 0.3-0.35 U/ml. In contrast, 12 μg protamine only neutralized about 0.25 U/ml of LMWH under these conditions.

[4] = blood of Lovenox-treated Patient Number 1
[5] = blood of Lovenox-treated Patient Number 2
[6] = blood of Lovenox-treated Patient Number 3
[7] = blood of Lovenox-treated Patient Number 4
[8] = blood of Lovenox-treated Patient Number 5
[9] = blood of Lovenox-treated Patient Number 8
[10] = blood of Lovenox-treated Patient Number 9
[11] = blood of Lovenox-treated Patient Number 10
[12] = blood of Lovenox-treated Patient Number 11

Row | Kd [2] [nM] | Sequence | Lovenox ® Neutralized [1, 4] [U/ml] | Lovenox ® Neutralized [1, 5] [U/ml] | Lovenox ® Neutralized [1, 6] [U/ml] | Lovenox ® Neutralized [1, 7] [U/ml] | Lovenox ® Neutralized [1, 8] [U/ml] | Lovenox ® Neutralized [1, 9] [U/ml] | Lovenox ® Neutralized [1, 10] [U/ml] | Lovenox ® Neutralized [1, 11] [U/ml] | Lovenox ® Neutralized [1, 12] | Lovenox ® Neutralized ([3]; 1 μg/ml Peptide, A Plasma) | Lovenox ® Neutralized ([3]; 1 μg/ml Peptide, B Plasma) [U/ml] | Lovenox ® Neutralized ([3]; 1 μg/ml Peptide, C Plasma) | Lovenox ® Neutralized ([3]; 1 μg/ml Peptide, Citrate) | Lovenox ® Neutralized ([3]; 6 μg/ml Peptide, A Plasma) | Lovenox ® Neutralized ([3]; 6 μg/ml Peptide, B Plasma) [U/ml] | Lovenox ® Neutralized ([3]; 6 μg/ml Peptide, C Plasma) [U/ml] | Lovenox ® Neutralized ([3]; 6 μg/ml Peptide, Citrate) | Lovenox ® Neutralized ([3]; 12 μg/ml Peptide, A Plasma) | Lovenox ® Neutralized ([3]; 12 μg/ml Peptide, B Plasma) [U/ml] | also measured
1 | 8327 ± 60 | ARKKAAKAAAAAAAAAAAAAAAAAARKKAAKA [ARKKAAKA(A16)ARKKAAKA, reference compound] | 0 | 0.011 | 0.055 | 0.035 | 0.005 | 0 | 0.009 | 0.062 | 0.007 + U/ml | 0.010 ± 0.008 U/ml | 0.027 ± 0.014 | 0.0 U/ml | 0.020 ± 0.023 U/ml | 0.018 ± 0.018 U/ml | 0.042 ± 0.041 | 0.0 | 0.013 ± 0.007 U/ml | 0.025 ± 0.011 U/ml | 0.042 ± 0.023 | Lovenox ® Neutralized ([3]; 12 μg/ml Peptide, C Plasma): 0.008 ± 0.012 U/ml; Lovenox ® Neutralized ([3]; 12 μg/ml Peptide, Citrate): 0.010 ± 0.007 U/ml; Lovenox ® Neutralized ([3]; 60 μg/ml Peptide, A Plasma): 0.018 ± 0.020 U/ml; Lovenox ® Neutralized ([3]; 60 μg/ml Peptide, B Plasma): 0.061 ± 0.067 U/ml; Lovenox ® Neutralized ([3]; 60 μg/ml Peptide, C Plasma): 0.015 ± 0.012 U/ml; Lovenox ® Neutralized ([3]; 60 μg/ml Peptide, Citrate): 0.017 ± 0.014 U/ml; Lovenox ® Neutralized ([3]; 120 μg/ml Peptide, A Plasma): 0.043 ± 0.020 U/ml; Lovenox ® Neutralized ([3]; 120 μg/ml Peptide, B Plasma): 0.092 ± 0.042 U/ml; Lovenox ® Neutralized ([3]; 120 μg/ml Peptide, C Plasma): 0.003 ± 0.002 U/ml; Lovenox ® Neutralized ([3]; 120 μg/ml Peptide, Citrate): 0.069 ± 0.035 U/ml; effect in the anti-Factor Xa assay for Lovenox ([3]; in both citrate and plasma): minimal effects
2 | 44 ± 17 | ARKKAAKAARKKAAKAARKKAAKAVLVLVL [(ARKKAAKA)3VLVLVL] | 0.016 | 0.030 | 0.043 | 0.122 | 0.109 | 0.104 | 0.187 | 0.133 | 0.142 U/ml | 0.070 ± .036 U/ml | 0.030 ± 0.020 | 0.005 + 0.007 U/ml | 0.064 ± .046 U/ml | 0.250 ± .012 U/ml | 0.234 ± 0.032 | 0.153 ± 0.031 | 0.298 ± .049 U/ml | 0.241 ± .076 U/ml | 0.247 ± 0.031 | Lovenox ® Neutralized ([3]; 12 μg/ml Peptide, C Plasma): 0.276 ± 0.033 U/ml; Lovenox ® Neutralized ([3]; 12 μg/ml Peptide, Citrate): 0.457 ± .016 U/ml; Lovenox ® Neutralized ([3]; 60 μg/ml Peptide, A Plasma): 0.453 ± .029 U/ml; Lovenox ® Neutralized ([3]; 60 μg/ml Peptide, B Plasma): 0.474 ± 0.011 U/ml; Lovenox ® Neutralized ([3]; 60 μg/ml Peptide, C Plasma): 0.491 ± 0.029 U/ml; Lovenox ® Neutralized ([3]; 60 μg/ml Peptide, Citrate): 0.479 ± .006 U/ml; Lovenox ® Neutralized ([3]; 120 μg/ml Peptide, A Plasma): 0.457 ± .010 U/ml; Lovenox ® Neutralized ([3]; 120 μg/ml Peptide, B Plasma): 0.496 ± 0.028 U/ml; Lovenox ® Neutralized ([3]; 120 μg/ml Peptide, C Plasma): 0.471 ± 0.013 U/ml; Lovenox ® Neutralized ([3]; 120 μg/ml Peptide, Citrate): 0.516 ± .065 U/ml; anti-LMWH effect in citrate compared with plasma [3]: greater anti-LMWH effect in citrate than in plasma

Row | Sequence | Kd [2] [nM] | Lovenox ® Neutralized [1, 4] [U/ml] | Lovenox ® Neutralized [1, 5] [U/ml] | Lovenox ® Neutralized [1, 6] [U/ml] | Lovenox ® Neutralized [1, 7] [U/ml] | Lovenox ® Neutralized [1, 8] [U/ml] | Lovenox ® Neutralized [1, 9] [U/ml] | Lovenox ® Neutralized [1, 10] [U/ml] | Lovenox ® Neutralized [1, 11] [U/ml] | Lovenox ® Neutralized [1, 12] | Lovenox ® Neutralized ([3]; 1 μg/ml Peptide, A Plasma) | Lovenox ® Neutralized ([3]; 1 μg/ml Peptide, B Plasma) [U/ml] | Lovenox ® Neutralized ([3]; 1 μg/ml Peptide, C Plasma) | Lovenox ® Neutralized ([3]; 1 μg/ml Peptide, Citrate) | Lovenox ® Neutralized ([3]; 6 μg/ml Peptide, A Plasma) | Lovenox ® Neutralized ([3]; 6 μg/ml Peptide, B Plasma) [U/ml] | Lovenox ® Neutralized ([3]; 6 μg/ml Peptide, C Plasma) [U/ml] | Lovenox ® Neutralized ([3]; 6 μg/ml Peptide, Citrate) | Lovenox ® Neutralized ([3]; 12 μg/ml Peptide, A Plasma) | Lovenox ® Neutralized ([3]; 12 μg/ml Peptide, B Plasma) [U/ml] | also measured
3 | ARKKAAKAARKKAAKAARKKAAKAARKKAAKA [(ARKKAAKA)4] | 55 ± 32 | 0.116 | 0.073 | 0.105 | 0.225 | 0.194 | 0.289 | 0.283 | 0.194 | 0.135 U/ml | 0.020 ± 0.016 U/ml | 0.031 ± 0.015 | 0.059 ± 0.029 U/ml | 0.141 ± 0.051 U/ml | 0.184 ± 0.038 U/ml | 0.178 ± 0.022 | 0.252 ± 0.024 | 0.376 ± 0.019 U/ml | 0.287 ± 0.058 U/ml | 0.328 ± 0.041 | affinity for low molecular weight heparin [2]: high heparin affinity; Lovenox ® Neutralized ([3]; 12 μg/ml Peptide, C Plasma): 0.325 ± 0.030 U/ml; Lovenox ® Neutralized ([3]; 12 μg/ml Peptide, Citrate): 0.473 ± 0.039 U/ml; Lovenox ® Neutralized ([3]; 60 μg/ml Peptide, A Plasma): 0.343 ± 0.090 U/ml; Lovenox ® Neutralized ([3]; 60 μg/ml Peptide, B Plasma): 0.488 ± 0.012 U/ml; Lovenox ® Neutralized ([3]; 60 μg/ml Peptide, C Plasma): 0.495 ± 0.032 U/ml; Lovenox ® Neutralized ([3]; 60 μg/ml Peptide, Citrate): 0.515 ± 0.016 U/ml; Lovenox ® Neutralized ([3]; 120 μg/ml Peptide, A Plasma): 0.601 ± 0.052 U/ml; Lovenox ® Neutralized ([3]; 120 μg/ml Peptide, B Plasma): 0.541 ± 0.065 U/ml; Lovenox ® Neutralized ([3]; 120 μg/ml Peptide, C Plasma): 0.570 ± 0.029 U/ml; Lovenox ® Neutralized ([3]; 120 μg/ml Peptide, Citrate): 0.509 ± 0.079 U/ml; anti-LMWH effect in citrate compared with plasma [3]: greater anti-LMWH effect in citrate than in plasma; Lovenox/LMWH neutralization compared with protamine ([3]; low concentrations, in the presence of plasma): more effective than protamine
